Reference: US20210024499A1, “OXIDIZED BIS(3-INDOLYL)METHANES AND USES THEREOF” (Sanford Burnam Prebys Medical Discovery Institute, priority 2018, published 2021)

Tests used:
Type in all cases: cell-based
MDA-MB-231 cells = assay: PARP cleavage assay (Western blotting), MDA-MB-231; settings: 6 hours
From the text: Compound 1a had no effect under the same conditions (FIG. 1A). […] Compound 1a, 28a, 47a, 48a, 73a, 39a, 70a, 103a, 89a and 88a had no effect under the same conditions (FIG. 3B-C).

MDA-MB-231 cancer cells = assay: Cell viability (MTT) assay, MDA-MB-231; settings: Homo sapiens; inhibiting the growth of MDA-MB-231 cancer cells, cell viability assay (Table 6)
Experimental: (§1) Cell viability was analyzed by using a colorimetric 3-(4,5-dimethylthiazol-[…]2-yl)-2,5-diphenyletetrazolium Bromide (MTT) assay that determines mitochondrial dehydrogenase activities in the living cells with a colorimetric method. Cells treated with test compounds were incubated with MTT and their effect on the viability of the cells was assayed by the ability of treated cells to reduce the yellow tetrazolium dye MTT to its insoluble formazan, which has a purple color. […]

HCT116 cancer cells = assay: Cell viability (MTT) assay, HCT116; settings: Homo sapiens, HCT-116; inhibiting the growth of HCT116 cancer cells, cell viability assay (Table 5)
Experimental: as §1

[1] = tested on: mTOR markers p-S6 and p-4EBP1; assay: mTOR inhibition: expression of mTOR markers; settings: MDA-MB-231 cells, 1 μM, 6 hours

SMILES	PARP cleavage (MDA-MB-231 cells; 0.5 μM)	IC50 (MDA-MB-231 cancer cells) [nM]	IC50 (HCT116 cancer cells) [nM]	expression levels of mTOR markers p-S6 and p-4EBP1 [1]	PARP cleavage (MDA-MB-231 cells; 1 μM)
CCn1cc([C+](c2ccc(C(F)(F)F)cc2)c2c[nH]c3ccccc23)c2ccccc21.[Cl-] [Compound 47, (1-Ethyl-1H-indol-3-yl)(1H-indol-3-yl)(4-(trifluoromethyl)phenyl)methylium chloride]	effectively induced PARP cleavage	< 500	< 500		
Cc1cccc2c([C+](c3ccc(C(F)(F)F)cc3)c3c[nH]c4ccccc34)c[nH]c12.[Cl-] [Compound 55, (7-Methyl-1H-indol-3-yl)(1H-indol-3-yl)(4-(trifluoromethyl)phenyl)methylium chloride]				reduced the expression levels	effectively induce PARP cleavage
Cc1ccc2[nH]cc([C+](c3ccc(C(F)(F)F)cc3)c3c[nH]c4ccccc34)c2c1.[Cl-] [Compound 57, (5-Methyl-1H-indol-3-yl)(1H-indol-3-yl)(4-(trifluoromethyl)phenyl)methylium chloride]				reduced the expression levels	effectively induce PARP cleavage
Fc1cccc2c([C+](c3ccc(C(F)(F)F)cc3)c3c[nH]c4c(F)cccc34)c[nH]c12.[Cl-] [Compound 62, Bis(7-fluoro-1H-indol-3-yl)(4-(trifluoromethyl)phenyl)methylium chloride]				reduced the expression levels	effectively induce PARP cleavage
FC(F)(F)c1ccc([C+](c2c[nH]c3cc(Cl)ccc23)c2c[nH]c3cc(Cl)ccc23)cc1.[Cl-] [Compound 67, Bis(6-chloro-1H-indol-3-yl)(4-(trifluoromethyl)phenyl)methylium chloride]				reduced the expression levels	effectively induce PARP cleavage
Fc1ccc2c([C+](c3ccc(C(F)(F)F)cc3)c3c[nH]c4ccccc34)c[nH]c2c1.[Cl-] [Compound 70, (6-Fluoro-1H-indol-3-yl)(1H-indol-3-yl)(4-(trifluoromethyl)phenyl)methylium chloride]	effectively induced PARP cleavage	< 500	< 500		
Fc1cccc2[nH]cc([C+](c3ccc(C(F)(F)F)cc3)c3c[nH]c4ccccc34)c12.[Cl-] [Compound 72, (4-Fluoro-1H-indol-3-yl)(1H-indol-3-yl)(4-(trifluoromethyl)phenyl)methylium chloride]				reduced the expression levels	effectively induce PARP cleavage
FC(F)(F)c1ccc([C+](c2cn(-c3ccccc3)c3ccccc23)c2cn(-c3ccccc3)c3ccccc23)cc1.[Cl-] [Compound 74, Bis(1-phenyl-1H-indol-3-yl)(4-(trifluoromethyl)phenyl)methylium chloride]				reduced the expression levels	effectively induce PARP cleavage
Cn1cc([C+](c2ccc(C(F)(F)F)cc2)c2c[nH]c3ccccc23)c2ccc(F)cc21.[Cl-] [Compound 88, (6-Fluoro-1-methyl-1H-indol-3-yl)(1H-indol-3-yl)(4-(trifluoromethyl)phenyl)-methylium chloride]	effectively induced PARP cleavage	< 500	< 500		
Cn1cc([C+](c2ccc(C(F)(F)F)cc2)c2c[nH]c3c(F)cccc23)c2ccccc21.[Cl-] [Compound 89, (7-Fluoro-1H-indol-3-yl)(1-methyl-1H-indol-3-yl)(4-(trifluoromethyl)phenyl)-methylium chloride]	effectively induced PARP cleavage	< 500	< 500		
Fc1cc([C+](c2c[nH]c3ccccc23)c2c[nH]c3ccccc23)ccc1C(F)(F)F.[Cl-] [Compound 103, (3-Fluoro-4-(trifluoromethyl)phenyl)di(1H-indol-3-yl)methylium chloride]	effectively induced PARP cleavage	< 500	< 500		
